Literature values, collected in paper PMC12207880 (The Oncologist, 2025).
Where two headings read alike, the source gives them in different places.

What was measured:
[1] = 200 mg BID
advanced solid tumors = tested on: advanced solid tumors; design: method as in earlier work
[2] = tested on: patients treated with abemaciclib alone
[3] = tested on: patients treated with endocrine therapy combined with palbociclib
[4] = sample size 33 (escalation phase), U.S.A
[5] = sample size 132, U.S.A, France, Netherland

CCN1CCN(Cc2ccc(Nc3ncc(F)c(-c4cc(F)c5nc(C)n(C(C)C)c5c4)n3)nc2)CC1 [Abemaciclib, abemaciclib]
Ctrough ([1]; n=5): 210 (89%, n=5) ng/mL
Ctrough ([1]; n=52): 197 (82%, n=52) ng/mL
Overall DCR (advanced solid tumors; sample size 25, China): 68.0%
Overall ORR (advanced solid tumors; sample size 25, China): 8.0%
Overall DCR (advanced solid tumors; [4]): 48.5%
Overall ORR (advanced solid tumors; [4]): 0%
hypokalaemia of grade 3 [2]: 2 patients
hypokalaemia of all grades ([2]; 34 of 130 patients): 26.2%

CC(=O)c1c(C)c2cnc(Nc3ccc(N4CCNCC4)cn3)nc2n(C2CCCC2)c1=O [Palbociclib, palbociclib]
Overall DCR (advanced solid tumors; sample size 37, U.S.A): 35%
Overall ORR (advanced solid tumors; sample size 37, U.S.A): 0%
grade 4 increased GGT ([3]; 1 of 135 patients): 0.7%
grade 3 increased GGT ([3]; 3 of 135 patients): 2.2%
overall incidence of increased GGT ([3]; 135 patients): 4.4%

CN(C)C(=O)c1cc2cnc(Nc3ccc(N4CCNCC4)cn3)nc2n1C1CCCC1 [Ribociclib, ribociclib]
Overall DCR (advanced solid tumors; [5]): 32.6%
Overall ORR (advanced solid tumors; [5]): 2.3%
